Assay results taken from patent publication US20240316146A1, “METHODS OF REDUCING NEUROPATHY AND NEUROPATHIC SYMPTOMS AND TREATING CANCER” (Bexion Pharmaceuticals Inc., priority 2021, published 2024).
Where “and” joins values, the source holds several entries; their conditions need not be identical. Equal entries are not always repeated.

Experiments:
[1] = test system: mouse oxaliplatin model of chemotherapy-induced neuropathy; assay: Static mechanical (tactile) allodynia, von Frey filaments, Study 1; assay type: in vivo
Description: (§1) 60 adult male C57/BL6 mice (Charles River), 6-7 weeks of age, were housed in groups of 5 in Perspex cages, in a controlled environment of constant temperature and humidity (temperature: 21±1° C., light: dark cycle of 12:12 hours), with food and water available ad libitum. Animals were allowed to recover from transportation for at least one week before commencing experiments.
(§2) Static mechanical tactile allodynia: Static mechanical (tactile) allodynia was assessed by measurement of withdrawal threshold using calibrated (force; g) von-Frey monofilaments (Touch-Test Sensory Evaluator; Scientific Marketing Associates) applied to the plantar surface of the left hind-paw. The animals were placed in individual Perspex boxes on a raised metal mesh for 30-40 min before the test to habituate. A series of graduated von Frey hairs (0.07, 0.16, 0.4, 0.6 and 1 g) were applied in sequence with a protocol of 1 sec on 1 sec off repeated 10 times. Each hair was applied perpendicularly to the center of the ventral surface of the paw until it bent slightly. The force applied to the hind-paw of the animal to induce 5 responses out of 10 trials was recorded as paw withdrawal threshold (PWT) 50%.
(§3) Warm vials of BQX-350 were brought to room temperature and reconstituted with 4 mL water for injection via syringe. The vials were gently agitated and/or vortexed for 15-20 sec and allowed to sit at room temp for 5 mins. The rehydrated solution contained 2.2 mg/mL SapC (8.8 mg SapC per vial). About […] of the formulation was injected to achieve a target dose of 20 mg/kg in each mouse. Pregabalin was reconstituted in water and injected to achieve a target dose of 30 mg/kg in each mouse.
(§4) A two-way repeated measures ANOVA with ‘treatment’ as a between subjects effect, and ‘day’ as a within subjects effect was used (using GraphPad Prism version 9.0 for Windows, GraphPad Software, San Diego California USA), followed by Dunnett's multi comparisons test. Data is presented as mean±SEM.

[2] = test system: mouse oxaliplatin model of chemotherapy-induced neuropathy; assay: Thermal hypersensitivity, cold plate test 15° C., Study 1; assay type: in vivo
Description: as §1
(§5) Thermal hypersensitivity: Thermal hypersensitivity was assessed using a dynamic cold plate (Bioseb, France) set at a fixed temperature of 15° C. This method allows analysis of more integrated behaviors rather than reflex behaviors, e.g., the tail immersion test. In animal studies, thermal sensitivity is mostly evaluated based on nociceptive reaction latencies in response to a given thermal aversive stimulus. In this classical test, the temperature of the plate is fixed and remains constant: the latency to the first paw licking, jumps or withdrawal is taken as an index of nociceptive threshold. […] The results of the study are shown in Table 5 (raw data) below, Table 6 (summary) below, FIG. 4, and FIG. 5.
as §3, §4

[3] = test system: mouse oxaliplatin model of chemotherapy-induced neuropathy; assay: Static mechanical (tactile) allodynia, von Frey filaments, Study 2; assay type: in vivo; conditions: for PWT 50% (left hind paw Paw Withdrawal Threshold 50%): Group E Oxaliplatin/Pregabalin 30 mg/kg (days 3, 5, 7, 9), N 12; for Individual Paw Withdrawal Threshold 50% (von Frey filaments): Study 2, oxaliplatin 10 mg/kg IP day 0 (+vehicle, BXQ-350 2 mg/kg IP or pregabalin 30 mg/kg IP), individual mice
Description: as §2, §1
Static mechanical tactile allodynia: The same apparatus and protocol were used as for Study 1.

[4] = test system: mouse oxaliplatin model of chemotherapy-induced neuropathy; assay: Thermal hypersensitivity, cold plate test, Study 2; conditions: Group E Oxaliplatin/Pregabalin 30 mg/kg (days 3, 5, 7, 9), N 12
Description: as §5, §1
Thermal hypersensitivity: The same apparatus and protocol were used as for Study 1. The results of Study 2 are shown in Table 11 (raw data), Table 12 (summary), FIG. 8, and FIG. 9.

Body weights, Study 2 = assay type: in vivo, mouse; conditions: Group E Oxaliplatin/Pregabalin, individual mice
Source text: Body Weights: The mice were weighed daily starting 1 day prior to treatment through day 9.

[5] = oxaliplatin 10 mg/kg IP day 0 (+vehicle, BXQ-350 20 mg/kg IP or pregabalin 30 mg/kg IP), Baseline, individual mice
[6] = oxaliplatin 10 mg/kg IP day 0 (+vehicle, BXQ-350 20 mg/kg IP or pregabalin 30 mg/kg IP), Day 3, individual mice
[7] = oxaliplatin 10 mg/kg IP day 0 (+vehicle, BXQ-350 20 mg/kg IP or pregabalin 30 mg/kg IP), group mean
[8] = oxaliplatin treated animals, day 3 to day 9, BXQ-350 20 mg/kg, pregabalin 30 mg/kg 2 hours before assessment
[9] = cold plate 15° C., oxaliplatin 10 mg/kg IP day 0 (+vehicle, BXQ-350 20 mg/kg IP or pregabalin 30 mg/kg IP), group mean

In the case of `CC(C)C[C@H](CN)CC(=O)O` [Pregabalin], the “Individual Paw Withdrawal Threshold 50% (von Frey filaments)” value [1, 5] is reported as 0.8 g (4×) and 0.6 g (2×) and 1.0 g (2×) and 0.4 g (2×) and 0.7 g and 0.5 g, the “Individual Paw Withdrawal Threshold 50% (von Frey filaments)” value [1, 6] is reported as 1.0 g (3×) and 0.6 g and the “PWT 50% (g) Baseline” value [1, 7] is reported as 0.698 g. For the same molecule, the “PWT 50% (g) D3” value [1, 7] was “*0.733 g”, the “PWT 50% (g) D5” value [1, 7] was “***0.800 g” and the “PWT 50% (g) D7” value [1, 7] was “**0.733 g”. The “PWT 50% (g) D9” value [1, 7] was “****0.883 g”, the “mechanical allodynia (in words)” value [1, 8] was “reduced mechanical allodynia” and the “Latency (s) Baseline” value [2, 9] was 53.629 s. The “Latency (s) D 3” value [2, 9] was 49.400 s, the “Latency (s) D 5” value [2, 9] was 50.000 s and the “Latency (s) D 7” value [2, 9] was 47.183 s. For the same molecule, the “Latency (s) D 9” value [2, 9] was 59.300 s, the “Individual latency to displaying withdrawal behaviour in the cold plate test” value (“Individual latency” for short) [2, 5] was 52.9 s and 74.9 s and 74.7 s and 57.3 s and 48.6 s and 40.2 s and 57.5 s and 67.5 s and 38.5 s and 44.8 s and 41.3 s and 45.6 s and the “Individual latency” value [2, 6] was 56.7 s and 52.4 s and 44.4 s and 62.3 s and 57.6 s and 46.9 s and 63.6 s and 40.8 s and 58.2 s and 36.5 s and 52.5 s and 20.9 s. For the same molecule, the “Individual latency” value ([2]; oxaliplatin 10 mg/kg IP day 0 (+vehicle, BXQ-350 20 mg/kg IP or pregabalin 30 mg/kg IP), Day 5, individual mice) was 22.2 s and 43.5 s and 91.7 s and 73.6 s and 41.5 s and 39.3 s and 61.3 s and 40.1 s and 30.1 s and 42.7 s and 45.2 s and 68.8 s, the “Individual latency” value ([2]; oxaliplatin 10 mg/kg IP day 0 (+vehicle, BXQ-350 20 mg/kg IP or pregabalin 30 mg/kg IP), Day 7, individual mice) was 60.2 s and 40.3 s and 72.5 s and 98.2 s and 55.5 s and 29.3 s and 32.1 s and 35.2 s and 35.8 s and 32.5 s and 31.4 s and 43.2 s and the “Individual latency” value ([2]; oxaliplatin 10 mg/kg IP day 0 (+vehicle, BXQ-350 20 mg/kg IP or pregabalin 30 mg/kg IP), Day 9, individual mice) was 37.8 s and 71.7 s and 75.8 s and 54.0 s and 72.7 s and 34.6 s and 84.7 s and 71.5 s and 74.9 s and 42.7 s and 38.9 s and 52.3 s. The “thermal (cold) sensitivity, cold plate test (in words)” value [2, 8] was “reduced thermal sensitivity”, the “PWT 50% (left hind paw Paw Withdrawal Threshold 50%)” value ([3]; D3, mean (SEM)) was “****0.933 g” and the “PWT 50% (left hind paw Paw Withdrawal Threshold 50%)” value ([3]; D5, mean (SEM)) was “****0.833 g”. For the same molecule, the “PWT 50% (left hind paw Paw Withdrawal Threshold 50%)” value ([3]; D7, mean (SEM)) was “****0.817 g”, the “PWT 50% (left hind paw Paw Withdrawal Threshold 50%)” value ([3]; D9, mean (SEM)) was “****0.967 g” and the “PWT 50% (left hind paw Paw Withdrawal Threshold 50%)” value ([3]; D −1, mean (SEM)) was 0.697 g. The “PWT 50% (left hind paw Paw Withdrawal Threshold 50%)” value ([3]; D −2, mean (SEM)) was 0.600 g, the “PWT 50% (left hind paw Paw Withdrawal Threshold 50%)” value ([3]; D −3, mean (SEM)) was 0.633 g and the “Individual Paw Withdrawal Threshold 50% (von Frey filaments)” value ([3]; D 3) was 1.0 g (10×) and 0.6 g (2×). For the same molecule, the “Individual Paw Withdrawal Threshold 50% (von Frey filaments)” value ([3]; D 5) was 1.0 g (7×) and 0.6 g (5×), the “Individual Paw Withdrawal Threshold 50% (von Frey filaments)” value ([3]; D 7) was 1.0 g (7×) and 0.6 g (4×) and 0.4 g and the “Individual Paw Withdrawal Threshold 50% (von Frey filaments)” value ([3]; D 9) was 1.0 g (11×) and 0.6 g. For the same molecule, the “Individual Paw Withdrawal Threshold 50% (von Frey filaments)” value ([3]; D −1) was 1.0 g (5×) and 0.6 g (4×) and 0.4 g (2×) and 0.2 g, the “Individual Paw Withdrawal Threshold 50% (von Frey filaments)” value ([3]; D −2) was 0.4 g (2×) and 0.6 g (9×) and 1.0 g and the “Individual Paw Withdrawal Threshold 50% (von Frey filaments)” value ([3]; D −3) was 0.6 g (8×) and 1.0 g (2×) and 0.4 g (2×). The “Latency to withdrawal behaviour in the cold plate test (15° C.)” value (“Latency to withdrawal behaviour” for short) ([4]; D3, mean (SEM)) was “***77.083 + s”, the “Latency to withdrawal behaviour” value ([4]; D5, mean (SEM)) was 31.188 + s and the “Latency to withdrawal behaviour” value ([4]; D7, mean (SEM)) was “*42.792 + s”. For the same molecule, the “Latency to withdrawal behaviour” value ([4]; D9, mean (SEM)) was 42.063 + s, the “Latency to withdrawal behaviour” value ([4]; D −1, mean (SEM)) was 43.175 + s and the “Latency to withdrawal behaviour” value ([4]; D −2, mean (SEM)) was 44.725 + s. The “Latency to withdrawal behaviour” value ([4]; D −3, mean (SEM)) was 43.908 + s, the Individual body weights (Body weights, Study 2; D 0) was 21.9 g and 23.6 g (2×) and 28.1 g and 23.7 g and 25.7 g (2×) and 24.9 g and 21.8 g and 26.2 g and 23.4 g and 25.1 g and the Individual body weights (Body weights, Study 2; D 1) was 21.6 g and 23.0 g and 26.8 g and 22.7 g and 25.2 g and 25.1 g and 23.1 g and 24.5 g and 23.6 g and 24.8 g and 22.6 g and 24.4 g. The Individual body weights (Body weights, Study 2; D 2) was 21.8 g and 23.1 g and 27.0 g and 22.7 g and 25.1 g and 25.4 g and 23.8 g and 23.6 g and 23.4 g and 25.0 g and 22.8 g and 24.3 g, the Individual body weights (Body weights, Study 2; D 3) was 21.8 g and 23.0 g and 26.6 g and 22.6 g and 24.7 g and 25.5 g and 23.4 g and 22.4 g and 22.9 g and 24.8 g and 22.8 g and 24.0 g and the Individual body weights (Body weights, Study 2; D 4) was 21.8 g and 23.0 g and 27.0 g and 22.3 g and 25.0 g and 24.8 g and 23.4 g and 23.5 g and 23.7 g and 24.9 g and 23.1 g and 24.0 g. The Individual body weights (Body weights, Study 2; D 5) was 21.4 g and 24.0 g and 27.6 g and 22.9 g, the Individual body weights (Body weights, Study 2; D −1) was 21.9 g and 23.7 g and 27.9 g and 23.2 g (2×) and 23.4 g and 25.3 g and 23.3 g and 24.5 g and 24.2 g and 25.7 g and 24.8 g and the Individual body weights (Body weights, Study 2; D −2) was 21.9 g and 23.1 g and 27.6 g and 22.7 g and 25.6 g and 25.9 g and 23.3 g and 24.6 g and 23.8 g and 25.4 g and 22.8 g and 24.4 g. The Individual body weights (Body weights, Study 2; D −3) was 22.0 g and 23.0 g (4×) and 28.0 g and 26.0 g (3×) and 25.0 g (2×) and 24.0 g.
